In ChEMBL document CHEMBL1201862, “PubChem BioAssay data set” (2004):
The source made the active and inactive calls.

Tests used:
[1] = target: Mannose-6-phosphate isomerase (Homo sapiens, UniProt P34949); assay: MPI inhibition at elevated mannose 6-phosphate – biochemical, fluorescence intensity, high mannose 6-phosphate, primary screen (AID 1220)
[2] = target: T1, Voltage-gated N-type calcium channel alpha-1B subunit/Amyloid beta A4 precursor protein-binding family A member 1 (Homo sapiens, UniProt Q00975+Q02410); format: protein assay
SUMO-activating enzyme [3] = target: T2, SUMO-activating enzyme (Homo sapiens, UniProt Q9UBT2); assay: blockers of UBC9-mediated SUMO conjugation – biochemical, AlphaScreen, SUMOylation inhibitor project, confirmation (AID 2018); format: functional
[4] = target: T3, Apoptotic protease-activating factor 1 (Homo sapiens, UniProt O14727); format: functional
T3 sequence (O14727 whole entry): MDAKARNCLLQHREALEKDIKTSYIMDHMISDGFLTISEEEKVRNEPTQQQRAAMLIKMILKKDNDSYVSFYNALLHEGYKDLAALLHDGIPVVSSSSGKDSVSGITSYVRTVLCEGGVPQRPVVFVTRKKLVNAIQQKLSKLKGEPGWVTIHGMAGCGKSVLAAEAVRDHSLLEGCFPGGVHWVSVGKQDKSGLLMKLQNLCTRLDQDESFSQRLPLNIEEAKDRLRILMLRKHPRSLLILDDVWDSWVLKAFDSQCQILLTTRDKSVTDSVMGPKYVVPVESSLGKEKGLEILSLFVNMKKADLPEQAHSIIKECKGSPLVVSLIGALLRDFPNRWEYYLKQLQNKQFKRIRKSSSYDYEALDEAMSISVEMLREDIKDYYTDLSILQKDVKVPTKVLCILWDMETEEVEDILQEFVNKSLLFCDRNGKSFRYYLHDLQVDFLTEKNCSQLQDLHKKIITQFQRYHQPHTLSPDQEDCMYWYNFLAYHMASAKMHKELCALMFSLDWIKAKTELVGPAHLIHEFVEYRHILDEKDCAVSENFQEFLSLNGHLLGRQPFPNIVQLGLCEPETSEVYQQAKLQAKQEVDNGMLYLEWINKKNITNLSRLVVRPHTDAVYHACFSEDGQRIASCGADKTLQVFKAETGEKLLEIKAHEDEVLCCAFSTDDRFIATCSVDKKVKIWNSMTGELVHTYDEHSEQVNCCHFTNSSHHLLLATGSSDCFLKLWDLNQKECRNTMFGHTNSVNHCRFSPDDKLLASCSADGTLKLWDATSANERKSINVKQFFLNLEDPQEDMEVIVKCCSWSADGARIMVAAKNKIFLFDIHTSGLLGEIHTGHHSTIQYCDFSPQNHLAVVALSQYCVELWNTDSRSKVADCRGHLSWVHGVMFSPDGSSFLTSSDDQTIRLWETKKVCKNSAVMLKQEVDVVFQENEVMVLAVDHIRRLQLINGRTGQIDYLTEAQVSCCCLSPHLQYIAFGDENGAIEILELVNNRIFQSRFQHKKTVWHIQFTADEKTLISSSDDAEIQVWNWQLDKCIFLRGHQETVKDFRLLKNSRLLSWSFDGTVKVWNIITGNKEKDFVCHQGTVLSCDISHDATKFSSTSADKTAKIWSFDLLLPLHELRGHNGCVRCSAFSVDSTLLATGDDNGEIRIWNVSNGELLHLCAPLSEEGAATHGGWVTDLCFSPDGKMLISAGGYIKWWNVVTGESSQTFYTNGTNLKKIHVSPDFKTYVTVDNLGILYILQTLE

SUMO-activating enzyme [5] = target: T2, SUMO-activating enzyme; assay: blockers of SAE1/SAE2–UBC9 SUMO transfer – biochemical, HTRF, uHTS, primary screen (AID 2006); format: protein-complex assay
[6] = target: T1, Voltage-gated N-type calcium channel alpha-1B subunit/Amyloid beta A4 precursor protein-binding family A member 1; format: protein assay; remark: listed apart in the source
cells = conditions: HEK293
[7] = target: T4, Polyadenylate-binding protein 1 (Homo sapiens, UniProt P11940); assay: MLLE domain peptide-binding blockers, IC50 – biochemical, fluorescence polarization, FITC-PAM2 peptide, dose response (AID 602259); format: functional; conditions: read-out: IC50_Mean
[8] = target: Glucose-6-phosphate 1-dehydrogenase (Homo sapiens, UniProt P11413); assay: inhibition of Homo sapiens G6PD, dose series – biochemical, fluorescence, selectivity assay for P. falciparum G6PD inhibitor project, dose response (AID 504792); format: functional
[9] = target: T4, Polyadenylate-binding protein 1; assay: MLLE binding blockers, Cy5 peptide tracer – biochemical, fluorescence polarization, Cy5-PAM2 peptide, secondary, miRNA deadenylation inhibitor project, dose response (AID 602260); format: functional; conditions: read-out: IC50_Mean
[10] = target: COUP transcription factor 2 (Homo sapiens, UniProt P24468); assay: Luminescence-based cell-based high throughput dose response assay to identify inhibitors of COUP-TFII (NR2F2).; format: functional;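 note: HEK293 cells transiently cotransfected with COUP-TFII expression vector and reporter; luciferase reporter luminescence driven by COUP-TFII from the pX2-168 reporter plasmid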
[11] = mouse embryonic fibroblast toxicity – cell-based, plate reader, dry powder, set 2, cytotoxicity control, dose response (AID 652280); format: functional; conditions: NIH3T3
[12] = T. cruzi growth inhibition in host cells, dose response, cell-based, plate reader, dry powder, set 2 (AID 652275); format: functional
[13] = cytotoxicity in MITF-independent A375 cells – cell-based, CellTiter-Glo luminescence, dry powder, set 4, counter-screen for MITF inhibitor project, dose response (AID 624364); format: functional; conditions: A-375;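 note: A375 melanoma cells are MITF independent so this is a counter screen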

T1 sequence (Q00975 whole entry): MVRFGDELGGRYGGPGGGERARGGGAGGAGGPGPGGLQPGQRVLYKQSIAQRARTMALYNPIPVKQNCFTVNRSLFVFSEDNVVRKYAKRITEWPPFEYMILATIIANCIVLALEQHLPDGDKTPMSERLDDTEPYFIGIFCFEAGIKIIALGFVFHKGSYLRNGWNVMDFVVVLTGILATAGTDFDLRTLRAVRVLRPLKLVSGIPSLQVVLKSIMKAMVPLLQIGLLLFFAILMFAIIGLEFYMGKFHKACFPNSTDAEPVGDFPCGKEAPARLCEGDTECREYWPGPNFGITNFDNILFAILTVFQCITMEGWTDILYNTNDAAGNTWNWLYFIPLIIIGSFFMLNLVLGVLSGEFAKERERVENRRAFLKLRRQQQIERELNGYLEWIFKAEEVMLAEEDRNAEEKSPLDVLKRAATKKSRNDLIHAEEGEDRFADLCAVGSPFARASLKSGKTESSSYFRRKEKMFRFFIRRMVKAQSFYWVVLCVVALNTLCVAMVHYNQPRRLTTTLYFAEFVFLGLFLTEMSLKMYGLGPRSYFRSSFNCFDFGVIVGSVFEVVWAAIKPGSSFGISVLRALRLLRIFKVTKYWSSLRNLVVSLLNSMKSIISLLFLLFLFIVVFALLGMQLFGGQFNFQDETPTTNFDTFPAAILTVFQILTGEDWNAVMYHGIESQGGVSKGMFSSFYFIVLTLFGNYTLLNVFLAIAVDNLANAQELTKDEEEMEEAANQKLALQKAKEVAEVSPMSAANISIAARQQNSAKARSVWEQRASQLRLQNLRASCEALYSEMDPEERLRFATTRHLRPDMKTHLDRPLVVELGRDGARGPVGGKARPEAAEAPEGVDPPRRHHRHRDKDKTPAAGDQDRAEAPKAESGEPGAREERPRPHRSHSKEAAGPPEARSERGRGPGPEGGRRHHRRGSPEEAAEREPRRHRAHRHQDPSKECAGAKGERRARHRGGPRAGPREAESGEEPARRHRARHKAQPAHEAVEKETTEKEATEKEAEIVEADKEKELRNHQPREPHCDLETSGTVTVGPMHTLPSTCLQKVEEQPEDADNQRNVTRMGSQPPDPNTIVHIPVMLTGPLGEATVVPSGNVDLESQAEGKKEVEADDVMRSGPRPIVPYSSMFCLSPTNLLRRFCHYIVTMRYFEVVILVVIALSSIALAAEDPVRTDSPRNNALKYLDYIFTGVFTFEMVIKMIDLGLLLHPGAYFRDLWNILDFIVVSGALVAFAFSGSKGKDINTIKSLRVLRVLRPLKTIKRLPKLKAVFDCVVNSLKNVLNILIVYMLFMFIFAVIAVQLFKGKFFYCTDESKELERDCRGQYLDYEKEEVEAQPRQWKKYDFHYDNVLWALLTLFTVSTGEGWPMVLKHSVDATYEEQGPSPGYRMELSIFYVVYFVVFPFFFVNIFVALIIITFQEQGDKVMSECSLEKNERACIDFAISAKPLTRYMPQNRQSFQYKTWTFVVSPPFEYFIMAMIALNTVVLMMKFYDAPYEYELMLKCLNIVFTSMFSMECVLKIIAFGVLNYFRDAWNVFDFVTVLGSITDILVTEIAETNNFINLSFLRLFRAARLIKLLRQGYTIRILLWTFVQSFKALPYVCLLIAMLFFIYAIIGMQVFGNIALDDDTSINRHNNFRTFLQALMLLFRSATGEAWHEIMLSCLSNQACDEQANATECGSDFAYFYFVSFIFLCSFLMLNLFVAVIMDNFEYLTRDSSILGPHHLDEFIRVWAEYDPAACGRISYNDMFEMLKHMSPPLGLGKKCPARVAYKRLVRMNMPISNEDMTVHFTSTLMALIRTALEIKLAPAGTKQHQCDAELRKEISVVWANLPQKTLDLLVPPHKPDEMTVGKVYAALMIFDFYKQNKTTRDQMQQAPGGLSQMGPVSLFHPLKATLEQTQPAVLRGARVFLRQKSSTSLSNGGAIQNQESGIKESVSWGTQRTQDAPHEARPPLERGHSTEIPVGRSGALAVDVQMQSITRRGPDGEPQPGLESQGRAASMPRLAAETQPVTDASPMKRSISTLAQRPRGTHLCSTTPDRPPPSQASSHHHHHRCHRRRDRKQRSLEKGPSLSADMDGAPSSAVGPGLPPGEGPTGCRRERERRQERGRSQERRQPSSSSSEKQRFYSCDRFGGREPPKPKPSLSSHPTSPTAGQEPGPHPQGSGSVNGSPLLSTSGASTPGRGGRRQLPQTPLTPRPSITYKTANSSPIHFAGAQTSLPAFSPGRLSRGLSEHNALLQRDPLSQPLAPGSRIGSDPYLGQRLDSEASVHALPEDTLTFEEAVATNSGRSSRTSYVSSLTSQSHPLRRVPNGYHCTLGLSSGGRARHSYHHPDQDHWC
T1 sequence (Q02410 whole entry): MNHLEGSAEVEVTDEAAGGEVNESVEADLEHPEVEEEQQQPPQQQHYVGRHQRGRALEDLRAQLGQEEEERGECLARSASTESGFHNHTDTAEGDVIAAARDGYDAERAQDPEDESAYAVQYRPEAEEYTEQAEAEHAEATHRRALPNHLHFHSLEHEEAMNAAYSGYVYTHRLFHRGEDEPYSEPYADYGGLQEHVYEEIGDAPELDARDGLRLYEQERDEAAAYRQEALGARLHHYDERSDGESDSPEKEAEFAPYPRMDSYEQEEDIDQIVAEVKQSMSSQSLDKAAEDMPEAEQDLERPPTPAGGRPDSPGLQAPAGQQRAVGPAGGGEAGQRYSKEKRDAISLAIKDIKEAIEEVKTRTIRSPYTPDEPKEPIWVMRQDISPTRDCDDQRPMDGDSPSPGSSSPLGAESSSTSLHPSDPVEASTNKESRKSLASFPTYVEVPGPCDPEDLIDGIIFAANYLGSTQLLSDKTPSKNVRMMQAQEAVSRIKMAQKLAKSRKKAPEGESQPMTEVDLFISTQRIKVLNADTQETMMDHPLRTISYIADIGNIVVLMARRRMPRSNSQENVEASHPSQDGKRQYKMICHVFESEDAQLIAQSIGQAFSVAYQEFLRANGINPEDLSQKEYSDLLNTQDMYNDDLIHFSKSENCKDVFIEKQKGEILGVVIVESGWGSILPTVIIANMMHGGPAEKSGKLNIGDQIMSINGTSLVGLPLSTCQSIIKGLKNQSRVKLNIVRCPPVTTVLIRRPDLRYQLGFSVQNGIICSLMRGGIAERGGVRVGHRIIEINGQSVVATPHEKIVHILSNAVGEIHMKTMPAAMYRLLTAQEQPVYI
T4 sequence (P11940 whole entry, the tested form may be a part): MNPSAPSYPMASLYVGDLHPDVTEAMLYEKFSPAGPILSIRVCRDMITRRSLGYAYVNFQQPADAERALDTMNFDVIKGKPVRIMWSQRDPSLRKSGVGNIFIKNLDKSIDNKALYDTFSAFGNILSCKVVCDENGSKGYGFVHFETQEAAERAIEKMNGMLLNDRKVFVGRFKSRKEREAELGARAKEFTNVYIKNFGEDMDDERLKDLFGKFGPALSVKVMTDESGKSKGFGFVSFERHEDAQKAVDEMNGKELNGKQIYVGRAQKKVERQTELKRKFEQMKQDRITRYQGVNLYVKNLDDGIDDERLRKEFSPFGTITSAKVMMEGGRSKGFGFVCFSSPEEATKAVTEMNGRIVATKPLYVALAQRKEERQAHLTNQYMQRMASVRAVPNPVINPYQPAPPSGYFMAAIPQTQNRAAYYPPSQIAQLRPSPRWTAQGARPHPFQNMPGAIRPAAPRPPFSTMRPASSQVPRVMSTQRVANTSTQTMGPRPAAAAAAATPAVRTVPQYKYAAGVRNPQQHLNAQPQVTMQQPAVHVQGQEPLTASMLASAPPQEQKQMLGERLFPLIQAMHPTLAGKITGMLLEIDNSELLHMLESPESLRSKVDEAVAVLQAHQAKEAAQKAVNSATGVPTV
T2 sequence (Q9UBE0 whole entry): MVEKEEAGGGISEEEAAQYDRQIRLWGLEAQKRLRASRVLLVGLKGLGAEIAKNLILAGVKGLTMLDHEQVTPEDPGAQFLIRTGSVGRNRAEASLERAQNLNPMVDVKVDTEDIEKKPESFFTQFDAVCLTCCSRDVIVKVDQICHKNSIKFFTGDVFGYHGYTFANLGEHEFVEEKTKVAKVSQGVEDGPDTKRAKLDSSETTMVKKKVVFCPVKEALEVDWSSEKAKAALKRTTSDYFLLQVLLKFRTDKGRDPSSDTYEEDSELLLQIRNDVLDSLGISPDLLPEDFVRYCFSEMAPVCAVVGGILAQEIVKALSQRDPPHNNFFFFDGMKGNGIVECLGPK
T2 sequence (Q9UBT2 whole entry): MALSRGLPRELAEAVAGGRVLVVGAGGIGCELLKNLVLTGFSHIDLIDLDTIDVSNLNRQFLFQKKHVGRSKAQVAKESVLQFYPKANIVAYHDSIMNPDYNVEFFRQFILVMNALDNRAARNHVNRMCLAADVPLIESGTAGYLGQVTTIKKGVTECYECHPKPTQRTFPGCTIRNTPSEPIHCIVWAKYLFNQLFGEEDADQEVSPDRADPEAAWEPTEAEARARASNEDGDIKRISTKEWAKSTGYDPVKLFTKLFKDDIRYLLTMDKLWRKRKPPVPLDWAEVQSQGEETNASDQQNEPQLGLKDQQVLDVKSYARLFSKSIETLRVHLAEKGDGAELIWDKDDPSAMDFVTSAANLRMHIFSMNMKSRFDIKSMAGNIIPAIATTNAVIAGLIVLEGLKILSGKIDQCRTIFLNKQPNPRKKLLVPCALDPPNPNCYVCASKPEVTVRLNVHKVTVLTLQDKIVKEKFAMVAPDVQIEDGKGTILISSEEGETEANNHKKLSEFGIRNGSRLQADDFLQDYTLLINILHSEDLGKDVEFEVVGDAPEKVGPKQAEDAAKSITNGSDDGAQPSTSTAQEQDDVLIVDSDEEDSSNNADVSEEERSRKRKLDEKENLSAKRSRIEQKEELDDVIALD

Q: For CCOC(=O)c1c2ccc(OCC(=O)NN)cc2n2ccccc12, which IC50 [1] is on record?
A: > 50 µM (not active)

Q: And the IC50 [2]?
A: 40.2 µM (active)

Q: What about the IC50 (SUMO-activating enzyme [3]) of the same compound?
A: 6.82 µM (active)

Q: And the IC50 [4]?
A: 18.5 µM (active)

Q: What about the IC50 (SUMO-activating enzyme [5]) of the same compound?
A: 1.64 µM (active)

Q: And the IC50 [6]?
A: 2.73 µM (active)

Q: And the AC50 (cells)?
A: > 52 µM (inactive)

Q: What about the IC50 [7] of the same compound?
A: 33.6 µM (inactive)

Q: What about the IC50 [8] of the same compound?
A: 62.8 µM (inactive)

Q: And the IC50 [9]?
A: > 66 µM (inactive)

Q: For C=CCC1(CC=C)CCCN1C(=O)c1cc(COc2ccc(-n3cncn3)cc2)on1, which IC50 [10] is on record?
A: 7.88 µM (active)

Q: Which results are given for CC(C)(C)[S@@+]([O-])N1Cc2cc(C(=O)NCc3ccc4c(c3)OCO4)nc(-c3cccc(-c4ccncc4)c3)c2[C@H]1CCO?
A: AC50 [11]: 8.56 µM (active); AC50 [12]: 341 nM (active)

Q: For C=CCNC1=C(NC(=O)c2ccccc2)C(=O)c2ccccc2C1=O, which AC50 [13] is on record?
A: > 70 µM (inactive)
